Reference: ChEMBL document CHEMBL3739421, “Discovery of oxybisbenzoylamides as a new class of antimalarial agents” (Medchemcomm, 2015)
pIC50: −log10 of the molar value. The source made the active and inactive calls. The calls are words filed in the database; no cut-off is given here.

Tests used:
[1] = biological target: Plasmepsin II (Plasmodium falciparum) (UniProt P46925); assay: Inhibition of Plasmodium falciparum recombinant PLM2 expressed in Escherichia coli BL21(DE3) pLysS cells using Lys-GluPhe-Val-Phe-NPhe-Ala-Leu-Lys as substrate at 1 uM by spectrophotometry
Chain of Plasmepsin II (Plasmodium falciparum) (P46925 125-453 limits assumed): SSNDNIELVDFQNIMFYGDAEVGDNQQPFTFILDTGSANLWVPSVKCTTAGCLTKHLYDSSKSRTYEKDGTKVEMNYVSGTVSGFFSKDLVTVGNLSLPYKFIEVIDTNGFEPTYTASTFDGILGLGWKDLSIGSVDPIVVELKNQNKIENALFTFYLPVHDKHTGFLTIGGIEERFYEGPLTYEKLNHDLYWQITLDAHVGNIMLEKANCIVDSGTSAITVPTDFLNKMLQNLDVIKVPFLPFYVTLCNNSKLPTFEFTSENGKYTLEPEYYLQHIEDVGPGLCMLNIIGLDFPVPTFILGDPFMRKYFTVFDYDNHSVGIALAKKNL

[2] = tested on: Plasmodium falciparum; assay: Antimalarial activity against Chloroquine-sensitive Plasmodium falciparum D10 assessed as parasite growth inhibition after 72 hrs by lactate dehydrogenase assay; format: functional, organism-based; conditions: D10, 72 h
[3] = tested on: Plasmodium falciparum; assay: Antimalarial activity against Chloroquine-resistant Plasmodium falciparum W2 assessed as parasite growth inhibition after 72 hrs by lactate dehydrogenase assay; format: functional, organism-based; conditions: W2, 72 h
[4] = Cytotoxicity against human HMEC1 cells assessed as growth inhibition after 72 hrs by MTT assay; format: cell-based; conditions: HMEC-1, 72 h
[5] = Cytotoxicity against human fibroblasts assessed as growth inhibition after 72 hrs by MTT assay; format: cell-based; conditions: Fibroblast
[6] = Therapeutic index, ratio of IC50 for HMEC1 cells to IC50 for Chloroquine-sensitive Plasmodium falciparum D10; format: cell-based; conditions: human; read-out: Ratio IC50
[7] = Therapeutic index, ratio of IC50 for human fibroblasts to IC50 for Chloroquine-sensitive Plasmodium falciparum D10; conditions: read-out: Ratio IC50
[8] = Therapeutic index, ratio of IC50 for HMEC1 cells to IC50 for Chloroquine-resistant Plasmodium falciparum W2; format: cell-based; conditions: human; read-out: Ratio IC50
[9] = Therapeutic index, ratio of IC50 for human fibroblasts to IC50 for Chloroquine-resistant Plasmodium falciparum W2; conditions: read-out: Ratio IC50
[10] = Inhibition of beta-haematin formation after 18 hrs by spectrophotometric analysis relative to haematin; format: physicochemical

| SMILES | inhibition [1] | pIC50 [2] | pIC50 [3] | pIC50 [5] | IC50 [10] [equiv] | IC50 [2] [µg/mL] | IC50 [3] [µg/mL] | further results |
| --- | --- | --- | --- | --- | --- | --- | --- | --- |
| CCCCNC(=O)[C@H](CC(C)C)NC(=O)[C@@H](NC(=O)c1ccc(Oc2ccc(C(=O)N[C@@H](C)C(=O)NCCCNc3ccnc4cc(Cl)ccc34)cc2)cc1)[C@@H](C)CC | inactive | 7.37 | 7.41 | 4.74 | 0.79 |  |  | pIC50 [4]: 4.75; selectivity ratio [6]: 450; selectivity ratio [7]: 450; selectivity ratio [8]: 450; selectivity ratio [9]: 450 |
| COc1cc(NC(C)CCCN)c2ncccc2c1 (stereo not drawn) [PRIMAQUINE] |  |  |  |  | > 10 |  |  |  |
| CCN(CC)CCNC(=O)[C@H](CC(C)C)NC(=O)c1ccc(Oc2ccccc2)cc1 |  |  |  |  |  | > 5 | > 5 |  |
| CCCCNC(=O)[C@H](CC(C)C)NC(=O)c1ccc(Oc2ccc(C(=O)N[C@@H](CC(C)C)C(=O)NCCN(CC)CC)cc2)cc1 |  | 6.45 | 6.50 | 4.64 |  |  |  |  |
| CCCCNC(=O)[C@H](CC(C)C)NC(=O)[C@@H](NC(=O)c1ccc(Oc2ccc(C(=O)N[C@H](C(=O)N[C@@H](CC(C)C)C(=O)NCCCC)[C@@H](C)CC)cc2)cc1)[C@@H](C)CC |  | 5.70 | 5.79 |  |  |  |  |  |
| CCCCNC(=O)[C@H](CC(C)C)NC(=O)[C@@H](NC(=O)c1ccc(Oc2ccc(C(=O)N[C@@H](CC(C)C)C(=O)NCCCN(CC)CC)cc2)cc1)[C@@H](C)CC |  | 6.92 | 6.99 | 4.79 |  |  |  | selectivity ratio [7]: > 100; selectivity ratio [9]: > 100 |
| CCN(CC)CCCC(C)Nc1ccnc2cc(Cl)ccc12 (stereo not drawn) [CHLOROQUINE] |  |  |  |  | 1.36 |  |  |  |
| CCCCNC(=O)[C@H](CC(C)C)NC(=O)[C@@H](NC(=O)c1ccc(Oc2ccc(C(=O)N[C@@H](CC(C)C)C(=O)N[C@@H](C)C(=O)NCCN(CC)CC)cc2)cc1)[C@@H](C)CC |  | 6.46 | 6.84 |  |  |  |  |  |
| CCCCNC(=O)[C@H](CC(C)C)NC(=O)[C@@H](NC(=O)c1ccc(Oc2ccc(C(=O)N[C@@H](CC(C)C)C(=O)N[C@@H](C)C(=O)NCCCC(C)Nc3cc(OC)cc4cccnc34)cc2)cc1)[C@@H](C)CC (stereo partly drawn) | inactive | 7.43 | 6.98 |  | > 8 |  |  |  |
| CCCCNC(=O)[C@H](CC(C)C)NC(=O)[C@@H](NC(=O)c1ccc(Oc2ccc(C(=O)N[C@@H](CC(C)C)C(=O)N[C@@H](C)C(=O)NCCCNc3ccnc4ccccc34)cc2)cc1)[C@@H](C)CC | inactive | 7.20 | 7.27 |  |  |  |  |  |
